Measured values from the METLIN SMRT retention time set (Domingo-Almenara et al. 2019).

assay: gradient 5% acetonitrile 3 min, to 50% in 2 min, to 85% in 15 min, held 3 min, 100 µL/min; conditions: column: Zorbax Extend-C18 2.1 x 50 mm; eluents: water / acetonitrile, 0.1% formic acid
Outline: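 Each retention time is based on an adduct peak selected computationally and verified by manual inspection. Measurements used HPLC–quadrupole time-of-flight mass spectrometry in positive and negative ionization mode on mixtures of ~100 pure standards. Chromatography ran on a Zorbax Extend-C18 column (2.1 × 50 mm, 1.8 μm) at 100 μL/min with water and acetonitrile, each containing 0.1% formic acid, and dead and dwell volumes of 40 μL and 900 μL.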

SMILES	RP-LC retention time [s]
CCOC(=O)CNC(=O)NCC(c1cccnc1)c1c[nH]c2ccccc12 (stereo not given)	598
O=C(NC1CCCCC1)NC1CCN(C(=O)C2CC2)C1 (stereo not given)	663
O=C(NCCn1ncccc1=O)c1ccc(S(=O)(=O)N2CCOCC2)cc1	572
Cc1ccc(C(CC(=O)NCCN2CCOCC2)N2Cc3ccccc3C2=O)cc1 (stereo not given)	642
COC(=O)c1c(NCC(C)O)c2cccc(Cl)c2[nH]c1=O (stereo not given)	610
CC1=NS(=O)(=O)N(C)C=C1C(=O)OCCOc1ccccc1	921
COc1ccc(-c2csc(NC(=O)CSc3nc(C)cc(C)n3)n2)cc1	979
COC(=O)c1sccc1NC(=O)N1CCCn2nc(-c3cccs3)cc2C1	984
Cc1ccc2c(c1)C(O)(CC(=O)c1ccc(NC(=O)C(C)(C)C)cc1)C(=O)N2 (stereo not given)	747
CCN(CC)S(=O)(=O)c1cccc(-c2nc(-c3ccc(C)cc3)no2)c1	1320
Cc1c(C(=O)N2CCN(C(=O)c3ccc(Br)o3)CC2)[nH]c2ccccc12	839
Cc1cc(NC(=O)CSc2ccc(-c3cccc([N+](=O)[O-])c3)nn2)no1	752
O=C(c1cc(-c2ccccc2)n[nH]1)N1CCN(c2ccc(N3CCOCC3)nn2)CC1	595
CN(CC#N)C(=O)c1ccc2c(c1)CCN2C(=O)C1CC1	680
CCC(C)NC(=O)Cn1cnc2nc(N3CCCC(C(=O)NC)C3)sc2c1=O (stereo not given)	608
Cc1cc(C)cc(NC(=O)CN2CCN(Cc3ccccc3)C(=O)C2=O)c1	782
COc1cc(OC)c(NC(=O)Cn2ncc3c(c2=O)N(C)C(=O)CS3)cc1Cl	695
CCc1ccc(-n2ncc3c(=O)n(Cc4nc(-c5ccccc5OC)no4)cnc32)cc1	1040
Cc1ccccc1Nc1c(-c2ccc(Cl)cc2)nc2c(C)cccn12	802
COCCc1noc(-c2cnc3nc(C)ccc3c2Nc2ccc(OC)cc2)n1	681
Cc1nnc2ccc(S(=O)(=O)Nc3ccc(Cl)cc3)cn12	711
Cc1cccc(NC(=O)C2CCCN(S(=O)(=O)c3cc(-c4noc(C5CCC5)n4)cs3)C2)c1 (stereo not given)	1130
NS(=O)(=O)c1ccc(CCNC(=O)c2csc(-c3cnccn3)n2)cc1	622

SMILES	RP-LC retention time [s]
Cn1nc(-c2nc(C(C)(C)C)no2)ccc1=O	761
Cc1ccc(-n2ccc(=O)c(-c3nc(-c4ccc(OC(C)C)cc4)no3)n2)cc1	1060
CC(C)NC(=O)c1ccc(OCC2CCN(C(=O)c3ccc(N(C)C)cc3)CC2)cc1	816
CC(C)(C)c1noc(-c2cccnc2-n2cnc(C(=O)Nc3cccc(F)c3)c2)n1	1000
COc1ccc(Cn2nc3c(S(=O)(=O)N4CCOCC4)cccn3c2=O)cc1F	773
CCN(CC)c1nc2cc(C(=O)NCC(C)C)ccc2c(=O)n1Cc1ccccc1	1090
Cc1ccccc1Cn1nnc2cc(C(=O)N3CCN(c4ncccn4)CC3)ccc21	819
COC(=O)CCN(C(=O)c1ccc(OC(C)=O)cc1)c1ccccn1	668
O=C(Nc1cccc(F)c1)C1CCCN(c2nc3ccsc3c(=O)n2Cc2ccc(F)cc2)C1 (stereo not given)	1050
COCC(=O)Nc1ccc(N2CCN(C3CCCCC3)CC2)cc1C(=O)O	603
COc1ccc(S(=O)(=O)Cc2nc(-c3ccc(C)cc3)no2)cc1OC	960
Cc1ccc(CNC(=O)C2CCN(S(=O)(=O)c3ccc4c(c3)sc(=O)n4C)CC2)cc1	862
Cc1ccc(NS(=O)(=O)c2cc(-c3[nH]ncc3C(=O)N3CCOCC3)oc2C)cc1C	713
Cc1ccc(-n2c(=O)c3c(cc(C)n3C)n(CC(=O)N3CCc4ccccc43)c2=O)cc1	928
Cc1ncoc1C(=O)N1CCCCCNC(=O)[C@@H]2CCC[C@@H]21	621
COc1ccc(-c2nnc(-c3cccnc3NCc3ccc(OC)c(OC)c3)o2)cc1	1060
CC1=C(c2ccc(F)cc2)S(=O)(=O)N=C1N1CCCN(C(=O)NC2CCCC2)CC1	820
CCCN1C(=O)c2c(C(=O)NCc3cccc(C)c3)ncn2CC1(C)C(=O)NC1CCCC1 (stereo not given)	851
CC(C)C(=O)Nc1ccc(-n2cnc(C(=O)NCc3cc(F)cc(F)c3)c2)nc1	785
Cc1noc(-c2ccnc(-n3cnc(C(=O)NCCc4ccc(Cl)cc4)c3)c2)n1	683
COc1ccc(-c2nc(-c3cn(-c4ccc(F)cc4)nn3)no2)c(OC)c1	974
CS(=O)(=O)N1C[C@H]2CCN(Cc3ccc(F)cc3F)C[C@H]21	584
